The record followed here is EP1738740A2, “Use of benzyl-1,3-thiazolidine-2,4-dione compounds for favouring and/or inducing and/or stimulating the pigmentation of keratinic materials and/or for limiting their depigmentation and/or their bleaching” (L'Oreal, priority 2005, dated 2007).

In the test the target is T1, 15-PGDH de type 1 (Homo sapiens, UniProt P15428).
T1 sequence (P15428 1-266): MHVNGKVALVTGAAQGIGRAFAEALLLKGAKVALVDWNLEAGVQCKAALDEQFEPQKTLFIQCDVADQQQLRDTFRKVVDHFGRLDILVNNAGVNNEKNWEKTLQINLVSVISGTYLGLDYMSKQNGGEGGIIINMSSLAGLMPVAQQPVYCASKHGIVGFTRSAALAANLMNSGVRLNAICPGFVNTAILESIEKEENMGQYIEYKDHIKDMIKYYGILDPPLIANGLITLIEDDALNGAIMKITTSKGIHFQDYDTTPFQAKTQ
Briefly: Test on 15-PGDH type 1: spectrophotometric enzyme inhibition, NADH formation at 340 nm with PGE2 and β-NAD. The class given is biochemical. The settings on record: concentration reducing the enzymatic activity of 15-PGDH by 50%; Tris 100 mM pH 7,4, 37°C, 50 µM Prostaglandine E2, 1,5 mM β-NAD. The procedure: L'enzyme 15-PGDH est obtenue comme décrit dans la demande FR 02/05067 déposée au nom de L'Oréal, en suspension dans un milieu adapté à une concentration de 0,3 mg/mL puis bloquée à - 80°C. Pour les besoins du test, cette suspension est décongelée et stockée dans de la glace.
Par ailleurs on prépare un tampon Tris 100 mM, pH = 7,4, contenant 0,1 mM de dithiothréitol (D5545, Sigma-Aldrich, L'isle D'Abeau Chesne, BP 701, 38297, Saint Quentin Fallavier), 1,5 mM de β-NAD (N6522, Sigma-Aldrich, L'isle D'Abeau Chesne, BP 701, 38297, Saint Quentin Fallavier), 50 µM de Prostaglandine E2 (P4172, Sigma-Aldrich, L'isle D'Abeau Chesne, BP 701, 38297, Saint Quentin Fallavier).
Dans la cuve d'un spectrophotomètre (Perkin-Elmer, Lambda 2) thermostaté à 37°C, dont la longueur d'onde de mesure est réglée à 340 nm, sont introduits 0,965 ml de ce tampon (préalablement porté à 37°C). 0,035 mL de suspension enzymatique à 37°C sont introduits dans la cuve concomitamment à l'enregistrement (correspondant à une augmentation de la densité optique à 340 nm). La vitesse maximale de réaction est relevée. […]

The term IC50 denotes the concentration that gives 50% inhibition. Read a high IC50 as weaker potency.

The compound `O=C1NC(=O)C(Cc2ccccc2Oc2ccc(Cl)cc2)S1` (stereo not shown) [compound 1] displayed an IC50 of 2200 nM.
